Laboratory results: ChEMBL document CHEMBL5365448, “Development of Long-Acting Dipeptidyl Peptidase-4 Inhibitors: Structural Evolution and Long-Acting Determinants” (J Med Chem, 2023)

Columns and labels:
[1] = Half life in Sprague-Dawley rat at 5 mg/kg, po measured at 0.083 to […] by Liquid chromatography coupled with tandem mass spectrometry analysis; format: ADME, organism-based; conditions: in vivo, time 0.083-0.25 hrs
[2] = Oral bioavailability in Sprague-Dawley rat at 5 mg/kg measured at 0.083 to […] by Liquid chromatography coupled with tandem mass spectrometry analysis; format: ADME, organism-based; conditions: in vivo, time 0.083-0.25 hrs
[3] = Half life in rat; format: ADME; conditions: in vivo
[4] = Oral Bioavailability in rat; format: ADME, organism-based; conditions: in vivo
[5] = Half life in dog at 0.5 mg/kg, iv measured after 0.083 hrs by liquid chromatography tandem mass spectrometry analysis; format: ADME, organism-based, Canis lupus familiaris; conditions: in vivo
[6] = Half life in rat at 1 mg/kg, iv measured after 0.083 hrs by liquid chromatography tandem mass spectrometry analysis; format: ADME, organism-based; conditions: in vivo
[7] = Oral bioavailability in rat at 2 mg/kg measured at 0.25 to 168 hrs by liquid chromatography tandem mass spectrometry analysis; format: ADME, organism-based; conditions: in vivo, time 0.25-168 hrs
[8] = Clearance in rat at 1 mg/kg, iv measured after 0.083 hrs by liquid chromatography tandem mass spectrometry analysis; format: ADME, organism-based; conditions: in vivo
[9] = Half life in mouse at 1 mg/kg, iv measured after 0.083 hrs by liquid chromatography tandem mass spectrometry analysis; format: ADME, organism-based; conditions: in vivo
[10] = Half life in monkey at 0.5 mg/kg, iv measured after 0.083 hrs by liquid chromatography tandem mass spectrometry analysis; format: ADME, organism-based, Macaca mulatta; conditions: rhesus monkey, in vivo
[11] = Cmax in rat at 10 mg/kg, po measured after 24 hrs by LC/MS/MS analysis; format: ADME, organism-based; set-up: dose 10 mg/kg, time 24 hrs, route po; conditions: in vivo
[12] = Cmax in dog at 3 mg/kg, po measured after 24 hrs by LC/MS/MS analysis; format: ADME, organism-based, Canis lupus familiaris; set-up: time 24 hrs, dose 3 mg/kg, route po; conditions: in vivo
[13] = Cmax in Cynomolgus monkey at 10 mg/kg, po measured after 24 hrs by LC/MS/MS analysis; format: ADME, organism-based, Macaca fascicularis; set-up: dose 10 mg/kg, time 24 hrs, route po; conditions: in vivo
[14] = Tmax in rat at 10 mg/kg, po measured after 24 hrs by LC/MS/MS analysis; format: ADME, organism-based; conditions: in vivo
[15] = Tmax in dog at 3 mg/kg, po measured after 24 hrs by LC/MS/MS analysis; format: ADME, organism-based, Canis lupus familiaris; conditions: in vivo
[16] = Tmax in Cynomolgus monkey at 10 mg/kg, po measured after 24 hrs by LC/MS/MS analysis; format: ADME, organism-based, Macaca fascicularis; conditions: in vivo
[17] = AUC in rat at 10 mg/kg, po measured after 24 hrs by LC/MS/MS analysis; format: ADME, organism-based; set-up: dose 10 mg/kg, time 24 hrs, route po; conditions: in vivo
[18] = AUC in rat at 1 mg/kg, iv measured after 24 hrs by LC/MS/MS analysis; format: ADME, organism-based; set-up: dose 1 mg/kg, time 24 hrs, route iv; conditions: in vivo
[19] = AUC in dog at 3 mg/kg, po measured after 24 hrs by LC/MS/MS analysis; format: ADME, organism-based, Canis lupus familiaris; set-up: dose 3 mg/kg, time 24 hrs, route po; conditions: in vivo
[20] = AUC in Cynomolgus monkey at 10 mg/kg, po measured after 24 hrs by LC/MS/MS analysis; format: ADME, organism-based, Macaca fascicularis; set-up: dose 10 mg/kg, time 24 hrs, route po; conditions: in vivo
[21] = Half life in rat at 10 mg/kg, po measured after 24 hrs by LC/MS/MS analysis; format: ADME, organism-based; conditions: in vivo
[22] = Half life in rat at 1 mg/kg, iv measured after 24 hrs by LC/MS/MS analysis; format: ADME, organism-based; conditions: in vivo
[23] = Half life in dog at 3 mg/kg, po measured after 24 hrs by LC/MS/MS analysis; format: ADME, organism-based, Canis lupus familiaris; conditions: in vivo
[24] = Half life in Cynomolgus monkey at 10 mg/kg, po measured after 24 hrs by LC/MS/MS analysis; format: ADME, organism-based, Macaca fascicularis; conditions: in vivo
[25] = Clearance in rat at 1 mg/kg, iv measured after 24 hrs by LC/MS/MS analysis; format: ADME, organism-based; conditions: in vivo
[26] = Clearance in dog at 3 mg/kg, po measured after 24 hrs by LC/MS/MS analysis; format: ADME, organism-based, Canis lupus familiaris; conditions: in vivo
[27] = Clearance in Cynomolgus monkey at 10 mg/kg, po measured after 24 hrs by LC/MS/MS analysis; format: ADME, organism-based, Macaca fascicularis; conditions: in vivo
[28] = Volume of distribution in rat at 1 mg/kg, iv measured after 24 hrs by LC/MS/MS analysis; format: ADME, organism-based; conditions: in vivo
[29] = Volume of distribution in dog at 3 mg/kg, po measured after 24 hrs by LC/MS/MS analysis; format: ADME, organism-based, Canis lupus familiaris; conditions: in vivo
[30] = Volume of distribution in Cynomolgus monkey at 10 mg/kg, po measured after 24 hrs by LC/MS/MS analysis; format: ADME, organism-based, Macaca fascicularis; conditions: in vivo
[31] = Oral bioavailability in rat at 10 mg/kg measured after 24 hrs by LC/MS/MS analysis; format: ADME, organism-based; conditions: in vivo
[32] = Oral bioavailability in rat at 1 mg/kg measured after 24 hrs by LC/MS/MS analysis; format: ADME, organism-based; conditions: in vivo
[33] = Oral bioavailability in dog at 3 mg/kg measured after 24 hrs by LC/MS/MS analysis; format: ADME, organism-based, Canis lupus familiaris; conditions: in vivo
[34] = Oral bioavailability in Cynomolgus monkey at 10 mg/kg measured after 24 hrs by LC/MS/MS analysis; format: ADME, organism-based, Macaca fascicularis; conditions: in vivo
[35] = Cmax in iv dosed rat; format: ADME, organism-based; set-up: route iv; conditions: in vivo
[36] = Tmax in iv dosed rat; format: ADME, organism-based; conditions: in vivo
[37] = AUC in iv dosed rat; format: ADME, organism-based; set-up: route iv; conditions: in vivo
[38] = Half life in iv dosed rat; format: ADME, organism-based; conditions: in vivo
[39] = Bioavilability in iv dosed rat; format: ADME, organism-based; conditions: in vivo

Work on N#Cc1ccc(F)cc1Cn1c(N2CCC[C@@H](N)C2)nc2cc(-c3cccnc3)sc2c1=O yielded a half-life [1] of 16.4 h and a bioavailability [2] of 94%.

Work on N[C@@H](CC(=O)N1CCSC1)Cc1cc(F)c(F)cc1F yielded a half-life [3] of 1.1 h and a bioavailability [4] of 3%.

CC#CCn1c(N2CCC[C@@H](N)C2)nc2c1c(=O)n(Cc1nc3cc(F)ccc3s1)c(=O)n2C gave a half-life [3] of 7.3 h.

N[C@H]1C[C@@H](N2CC3=C(C2)CS(=O)(=O)C3)CO[C@@H]1c1cc(F)ccc1F showed a half-life [5] of 52.8 h, a half-life [6] of 28 h and a bioavailability [7] of 91%. The clearance [8] was 19 mL/min/kg, the half-life [9] was 44.4 h and the half-life [10] was 61.1 h.

Work on Cn1c(=O)cc(N2CCC[C@@H](N)C2)n(Cc2ccccc2C#N)c1=O [ALOGLIPTIN] yielded a Cmax [11] of 393 ng/mL, a Cmax [12] of 447 ng/mL and a Cmax [13] of 3210 ng/mL. For the same compound, the Tmax [14] was 2.3 h, the Tmax [15] was 0.4 h and the Tmax [16] was 1 h. For the same compound, the AUC at 24 h [17] was 1200 ng·h/mL, the AUC at 24 h [18] was 260 ng·h/mL and the AUC at 24 h [19] was 1600 ng·h/mL. The AUC at 24 h [20] was 16600 ng·h/mL, the half-life [21] was 2.8 h and the half-life [22] was 1.4 h. For the same compound, the half-life [23] was 3 h, the half-life [24] was 5.6 h and the clearance [25] was 49 mL/min/kg. It also gave a CL/F [26] of 23 mL/min/kg, a CL/F [27] of 8.8 mL/min/kg and a Vd [28] of 3.5 L/kg. For the same compound, the Vd [29] was 3.5 L/kg, the Vd [30] was 2.6 L/kg and the bioavailability [31] was 45%. The bioavailability [32] was 86%, the bioavailability [33] was 68% and the bioavailability [34] was 87%.

CS(=O)(=O)Nc1cccc(NC(=O)CN2CCN(C(=O)C[C@H](N)Cc3ccccc3F)[C@H](Cc3ccccc3)C2)c1 gave a bioavailability [4] of less than 1%.

Compound N[C@H]1C[C@@H](N2Cc3nn4c(C(F)(F)F)cc(C(F)(F)F)nc4c3C2)CO[C@@H]1c1cc(F)ccc1F has a half-life [3] of 25.4 h, a bioavailability [4] of 71% and a Cmax [35] of 119 ng/mL. For the same compound, the Tmax [36] was 5.3 h, the AUC [37] was 3700 ng·h/mL and the half-life [38] was 25.4 h. The bioavailability [39] was 71%.
